# From PubChem BioAssay (NCI)
#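 Dose response: 5 concentrations. Exposure: 48 h. Format: 96-well plates. Endpoint: linear interpolation; highest concentration if not reached. TGI denotes the concentration required for complete inhibition of growth.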
# System: OVCAR-3 ovarian
# Assay: DTP human tumour cell line panel, 48 h
row,SMILES,TGI [µM]
1,COc1ccc(/C=c2/sc3n(c2=O)C(c2ccccc2)C2(O)CCCCC2N=3)cc1 (configuration not stated),> 12.5
2,CCN(CC)c1ccc2cc(C(N)=O)c(=N)oc2c1,> 100
3,Cc1ccc2c(c1)[nH]c(=S)n2C=C(C(N)=O)C(N)=O,> 100
4,C=CC[C@H]1O[Si](C(C)(C)C)(C(C)(C)C)[C@H](C)[C@H]1C,> 100
5,Cc1ccc(Nc2nc(=O)c3c4ccccc4n(C(=O)OC(C)(C)C)c3s2)cc1,55.7
6,N#Cc1cccc2c1Sc1ccccc1N2,> 100
7,NC1c2c(Br)sc(N3CCCC3)c2C(=O)C1O (configuration not stated),> 50
8,CSC1=C(C#N)C(=S)N=C(N)C1C(=O)Nc1ccc(C)cc1 (configuration not stated),> 100
9,C/C=C/C(C#N)(/C=C/c1ccccc1)OP1(=O)OC(c2ccccc2)C(C)N1C (configuration not stated),35.5
10,COc1ccc2c(c1)CC[C@@H]1[C@@H]2CC[C@]2(C)C(=O)/C(=C/c3ccc(N(C)C)cc3)C[C@@H]12,54.6
11,CN(C)CCCN1c2ccc([N+](=O)[O-])cc2CCc2cccc([N+](=O)[O-])c21,28.8
12,Cc1cc(=O)[nH]c(NNC(C#N)c2cccc(O)c2)n1 (configuration not stated),> 100
13,CCOC(=O)c1c(SC(=O)c2ccc(C(C)(C)C)cc2)n(-c2ccccc2)c(=S)n(-c2ccccc2)c1=O,> 100
14,CSCCCN(CCCSC)CCCSC,> 100
15,COc1cc(-c2ccc(Br)[nH]2)[nH]c1C=NCC(C)C,3.79
16,Cc1ccc(-c2n[nH]c(Cc3nc(-c4ccc(C)cc4)n[nH]3)n2)cc1,> 100
17,CN(CC(=O)N1CC(CCl)c2ccc([N+](=O)[O-])cc21)CC(=O)N1CC(CCl)c2ccc([N+](=O)[O-])cc21 (configuration not stated),> 100
18,Cc1c2n(c(=O)[nH]c1=O)C1OC(CO)C(O2)C1N=[N+]=[N-] (configuration not stated),> 100
19,CCOC(=O)c1ncn2c1[nH]c(=S)c1ccccc12,> 100
20,O=C(O)CCC(NC(=O)c1ccc(OCc2nc3cc(C(F)(F)F)ccc3nc2-c2ccccc2)cc1)C(=O)O (configuration not stated),> 100
21,COc1ccc(-c2cc(=O)c3ccc(O)cc3o2)c(OC)c1OC,> 100
22,C=CCC1(O)CC(n2cc(C)c(=O)[nH]c2=O)OC1CO[Si](C)(C)C(C)(C)C (configuration not stated),> 100
23,NC1CC(=O)c2cscc21 (configuration not stated),34.8
24,CC(=O)NC1=C(NCC(C)(C)C)C(=O)c2ccccc2C1=O,> 100
25,COc1c2c(cc3c1C(=O)c1c(O)cccc1C3=O)CC(O)CC2 (configuration not stated),> 100
26,COc1cc2c(c(OC)c1O)-c1ccc(SC)c(=O)cc1C(NC(C)=O)CC2 (configuration not stated),0.0142
27,CC(=O)c1cccc(Nc2nc3ccccc3c3occc23)c1,> 100

# System: SR leukemia
# Assay: DTP human tumour cell line panel, 48 h
row,SMILES,TGI [µM]
1,COc1ccc(/C=c2/sc3n(c2=O)C(c2ccccc2)C2(O)CCCCC2N=3)cc1 (configuration not stated),> 12.5
2,CCN(CC)c1ccc2cc(C(N)=O)c(=N)oc2c1,> 100
3,C=CC[C@H]1O[Si](C(C)(C)C)(C(C)(C)C)[C@H](C)[C@H]1C,> 100
4,Cc1ccc(Nc2nc(=O)c3c4ccccc4n(C(=O)OC(C)(C)C)c3s2)cc1,44.9
5,N#Cc1cccc2c1Sc1ccccc1N2,> 100
6,CSC1=C(C#N)C(=S)N=C(N)C1C(=O)Nc1ccc(C)cc1 (configuration not stated),> 100
7,CN(C)CCCN1c2ccc([N+](=O)[O-])cc2CCc2cccc([N+](=O)[O-])c21,> 100
8,Cc1cc(=O)[nH]c(NNC(C#N)c2cccc(O)c2)n1 (configuration not stated),> 100
9,CCOC(=O)c1c(SC(=O)c2ccc(C(C)(C)C)cc2)n(-c2ccccc2)c(=S)n(-c2ccccc2)c1=O,> 100
10,CSCCCN(CCCSC)CCCSC,58.8
11,Cc1c2n(c(=O)[nH]c1=O)C1OC(CO)C(O2)C1N=[N+]=[N-] (configuration not stated),> 100
12,O=C(O)CCC(NC(=O)c1ccc(OCc2nc3cc(C(F)(F)F)ccc3nc2-c2ccccc2)cc1)C(=O)O (configuration not stated),> 100
13,C=CCC1(O)CC(n2cc(C)c(=O)[nH]c2=O)OC1CO[Si](C)(C)C(C)(C)C (configuration not stated),> 100
14,CC(=O)NC1=C(NCC(C)(C)C)C(=O)c2ccccc2C1=O,> 100
15,COc1cc2c(c(OC)c1O)-c1ccc(SC)c(=O)cc1C(NC(C)=O)CC2 (configuration not stated),> 100
16,CC(=O)c1cccc(Nc2nc3ccccc3c3occc23)c1,> 100
17,O=C(CSC(=S)N1CCCCC1)Nc1nc2c(s1)CCCC2,> 100

# System: CCRF-CEM leukemia
# Assay: DTP human tumour cell line panel, 48 h
row,SMILES,TGI [µM]
1,COc1ccc(/C=c2/sc3n(c2=O)C(c2ccccc2)C2(O)CCCCC2N=3)cc1 (configuration not stated),> 12.5
2,CCN(CC)c1ccc2cc(C(N)=O)c(=N)oc2c1,> 100
3,C=CC[C@H]1O[Si](C(C)(C)C)(C(C)(C)C)[C@H](C)[C@H]1C,> 100
4,Cc1ccc(Nc2nc(=O)c3c4ccccc4n(C(=O)OC(C)(C)C)c3s2)cc1,> 100
5,N#Cc1cccc2c1Sc1ccccc1N2,> 100
6,NC1c2c(Br)sc(N3CCCC3)c2C(=O)C1O (configuration not stated),> 50
7,CSC1=C(C#N)C(=S)N=C(N)C1C(=O)Nc1ccc(C)cc1 (configuration not stated),> 100
8,C/C=C/C(C#N)(/C=C/c1ccccc1)OP1(=O)OC(c2ccccc2)C(C)N1C (configuration not stated),28
9,CN(C)CCCN1c2ccc([N+](=O)[O-])cc2CCc2cccc([N+](=O)[O-])c21,46.4
10,Cc1cc(=O)[nH]c(NNC(C#N)c2cccc(O)c2)n1 (configuration not stated),> 100
11,CCOC(=O)c1c(SC(=O)c2ccc(C(C)(C)C)cc2)n(-c2ccccc2)c(=S)n(-c2ccccc2)c1=O,> 100
12,CSCCCN(CCCSC)CCCSC,> 100
13,COc1cc(-c2ccc(Br)[nH]2)[nH]c1C=NCC(C)C,3.24
14,Cc1ccc(-c2n[nH]c(Cc3nc(-c4ccc(C)cc4)n[nH]3)n2)cc1,> 100
15,CN(CC(=O)N1CC(CCl)c2ccc([N+](=O)[O-])cc21)CC(=O)N1CC(CCl)c2ccc([N+](=O)[O-])cc21 (configuration not stated),> 100
16,Cc1c2n(c(=O)[nH]c1=O)C1OC(CO)C(O2)C1N=[N+]=[N-] (configuration not stated),> 100
17,CCOC(=O)c1ncn2c1[nH]c(=S)c1ccccc12,> 100
18,O=C(O)CCC(NC(=O)c1ccc(OCc2nc3cc(C(F)(F)F)ccc3nc2-c2ccccc2)cc1)C(=O)O (configuration not stated),> 100
19,COc1ccc(-c2cc(=O)c3ccc(O)cc3o2)c(OC)c1OC,> 100
20,C=CCC1(O)CC(n2cc(C)c(=O)[nH]c2=O)OC1CO[Si](C)(C)C(C)(C)C (configuration not stated),> 100
21,NC1CC(=O)c2cscc21 (configuration not stated),38.2
22,CC(=O)NC1=C(NCC(C)(C)C)C(=O)c2ccccc2C1=O,> 100
23,COc1c2c(cc3c1C(=O)c1c(O)cccc1C3=O)CC(O)CC2 (configuration not stated),> 100
24,COc1cc2c(c(OC)c1O)-c1ccc(SC)c(=O)cc1C(NC(C)=O)CC2 (configuration not stated),> 100
25,CC(=O)c1cccc(Nc2nc3ccccc3c3occc23)c1,> 100
26,O=C(CSC(=S)N1CCCCC1)Nc1nc2c(s1)CCCC2,> 100

# System: HOP-92 NSCLC
# Assay: DTP human tumour cell line panel, 48 h
row,SMILES,TGI [µM]
1,CCN(CC)c1ccc2cc(C(N)=O)c(=N)oc2c1,> 100
2,Cc1ccc2c(c1)[nH]c(=S)n2C=C(C(N)=O)C(N)=O,> 100
3,C=CC[C@H]1O[Si](C(C)(C)C)(C(C)(C)C)[C@H](C)[C@H]1C,> 100
4,Cc1ccc(Nc2nc(=O)c3c4ccccc4n(C(=O)OC(C)(C)C)c3s2)cc1,> 100
5,N#Cc1cccc2c1Sc1ccccc1N2,> 100
6,NC1c2c(Br)sc(N3CCCC3)c2C(=O)C1O (configuration not stated),> 50
7,C/C=C/C(C#N)(/C=C/c1ccccc1)OP1(=O)OC(c2ccccc2)C(C)N1C (configuration not stated),31.6
8,COc1ccc2c(c1)CC[C@@H]1[C@@H]2CC[C@]2(C)C(=O)/C(=C/c3ccc(N(C)C)cc3)C[C@@H]12,69
9,CN(C)CCCN1c2ccc([N+](=O)[O-])cc2CCc2cccc([N+](=O)[O-])c21,26.8
10,Cc1cc(=O)[nH]c(NNC(C#N)c2cccc(O)c2)n1 (configuration not stated),> 100
11,CCOC(=O)c1c(SC(=O)c2ccc(C(C)(C)C)cc2)n(-c2ccccc2)c(=S)n(-c2ccccc2)c1=O,> 100
12,COc1cc(-c2ccc(Br)[nH]2)[nH]c1C=NCC(C)C,4.01
13,Cc1ccc(-c2n[nH]c(Cc3nc(-c4ccc(C)cc4)n[nH]3)n2)cc1,> 100
14,CN(CC(=O)N1CC(CCl)c2ccc([N+](=O)[O-])cc21)CC(=O)N1CC(CCl)c2ccc([N+](=O)[O-])cc21 (configuration not stated),> 100
15,Cc1c2n(c(=O)[nH]c1=O)C1OC(CO)C(O2)C1N=[N+]=[N-] (configuration not stated),> 100
16,CCOC(=O)c1ncn2c1[nH]c(=S)c1ccccc12,> 100
17,O=C(O)CCC(NC(=O)c1ccc(OCc2nc3cc(C(F)(F)F)ccc3nc2-c2ccccc2)cc1)C(=O)O (configuration not stated),> 100
18,COc1ccc(-c2cc(=O)c3ccc(O)cc3o2)c(OC)c1OC,> 100
19,C=CCC1(O)CC(n2cc(C)c(=O)[nH]c2=O)OC1CO[Si](C)(C)C(C)(C)C (configuration not stated),> 100
20,NC1CC(=O)c2cscc21 (configuration not stated),49.6
21,COc1c2c(cc3c1C(=O)c1c(O)cccc1C3=O)CC(O)CC2 (configuration not stated),40.1
22,COc1cc2c(c(OC)c1O)-c1ccc(SC)c(=O)cc1C(NC(C)=O)CC2 (configuration not stated),> 100
23,CC(=O)c1cccc(Nc2nc3ccccc3c3occc23)c1,33
24,O=C(CSC(=S)N1CCCCC1)Nc1nc2c(s1)CCCC2,94.3

# System: SK-MEL-28 melanoma
# Assay: DTP human tumour cell line panel, 48 h
row,SMILES,TGI [µM]
1,COc1ccc(/C=c2/sc3n(c2=O)C(c2ccccc2)C2(O)CCCCC2N=3)cc1 (configuration not stated),> 12.5
2,CCN(CC)c1ccc2cc(C(N)=O)c(=N)oc2c1,> 100
3,Cc1ccc2c(c1)[nH]c(=S)n2C=C(C(N)=O)C(N)=O,> 100
4,C=CC[C@H]1O[Si](C(C)(C)C)(C(C)(C)C)[C@H](C)[C@H]1C,> 100
5,Cc1ccc(Nc2nc(=O)c3c4ccccc4n(C(=O)OC(C)(C)C)c3s2)cc1,> 100
6,CSC1=C(C#N)C(=S)N=C(N)C1C(=O)Nc1ccc(C)cc1 (configuration not stated),> 100
7,C/C=C/C(C#N)(/C=C/c1ccccc1)OP1(=O)OC(c2ccccc2)C(C)N1C (configuration not stated),32.7
8,CN(C)CCCN1c2ccc([N+](=O)[O-])cc2CCc2cccc([N+](=O)[O-])c21,30.1
9,Cc1cc(=O)[nH]c(NNC(C#N)c2cccc(O)c2)n1 (configuration not stated),> 100
10,CCOC(=O)c1c(SC(=O)c2ccc(C(C)(C)C)cc2)n(-c2ccccc2)c(=S)n(-c2ccccc2)c1=O,> 100
11,CSCCCN(CCCSC)CCCSC,> 100
12,COc1cc(-c2ccc(Br)[nH]2)[nH]c1C=NCC(C)C,7.67
13,Cc1ccc(-c2n[nH]c(Cc3nc(-c4ccc(C)cc4)n[nH]3)n2)cc1,> 100
14,CN(CC(=O)N1CC(CCl)c2ccc([N+](=O)[O-])cc21)CC(=O)N1CC(CCl)c2ccc([N+](=O)[O-])cc21 (configuration not stated),> 100
15,Cc1c2n(c(=O)[nH]c1=O)C1OC(CO)C(O2)C1N=[N+]=[N-] (configuration not stated),> 100
16,CCOC(=O)c1ncn2c1[nH]c(=S)c1ccccc12,> 100
17,O=C(O)CCC(NC(=O)c1ccc(OCc2nc3cc(C(F)(F)F)ccc3nc2-c2ccccc2)cc1)C(=O)O (configuration not stated),> 100
18,COc1ccc(-c2cc(=O)c3ccc(O)cc3o2)c(OC)c1OC,> 100
